Several values for one entry are separate records, joined by “and”; a condition that tells them apart may be missing. Equal values may be shown once. Read-outs that look alike come from different tables or passages of the source.
B1: CP51/46: Circularly permuted core streptavidin; termini 13 and 139 joined by GGGS linker, loop residues 47-50 removed, new termini Glu51 and Ala46 (SEQ ID NO:4) (protein)
chain: MESRYVLTGRYDSAPATDGSGTALGWTVAWKNNYRNAHSATTWSGQYVGGAEARINTQWLLTSGTTEANAWKSTLVEHDTFTKVKPSAASGGGSAEAGITGTWYNQLGSTFIVTAGADGALTGTYESA

Legend:
[1] = wild-type, cited from earlier work; for Ka: biotin association, estimated (Green 1990); for ΔH°: 25° C. (Chilkoti 1995)
[2] = Isothermal titration calorimetry of biotin binding; conditions: for ΔCp: Table 1a, CP51/46 in PB; for ΔCp observed: change in heat capacity of biotin association, linear fit of ΔH° versus temperature
Procedure: Isothermal titration calorimetry (ITC) experiments on wild-type streptavidin were performed on a MicroCal Omega instrument. ITC experiments on CP51/46 were done using a Calorimetry Science Corporation 4200 Calorimeter (Provo, Utah). CP51/46 solutions of 30-40 μM concentration were titrated by the addition of 20×5μL aliquots of 750 μM biotin dissolved in the same buffer as the protein. All ITC experiments were done in either phosphate (50 mM sodium phosphate, 100 mM NaCl, pH 7.75) or Tris (50 mM Tris HCl, 100 mM NaCl, pH 7.75) buffers. Biotin concentrations were determined gravimetrically. Data were analyzed using the proprietary software supplied by Calorimetry Science Corporation with the instrument. Heats of dilution for each injection were subtracted from the reaction heats before data analysis. Nonlinear fitting of the data allowed the number of binding sites (n), association constant (Ka), and binding enthalpy (ΔH°) to be determined assuming noncooperative binding and one site per subunit.

[3] = Tris buffer, per mol of subunits
[4] = phosphate buffer (PB), 25° C., per mol of subunits

| Molecule | Ka [1] | Ka ([1]; listed as Wild-type streptavidin) | Ka ([1]; listed as streptavidin) | ΔH° [1] | ΔH° ([1]; listed as wild type streptavidin) | ΔCp ([2]; per mol of subunits) | ΔCp observed [2] | TΔS° ([2]; wild-type, 25° C., from estimated Ka and Gibb's free energy) | TΔS° ([2]; wild-type, 25° C., from estimated Ka and Gibb's free energy, listed as wild-type streptavidin) | ΔG° ([2]; wild-type, from estimated Ka, per mol of subunits) | TΔS° [2, 3] | ΔG° [2, 3] | ΔH° [2, 3] | Ka ([2]; biotin association, Tris buffer pH 7.75, per mol of subunits) | TΔS° [2, 4] | ΔG° [2, 4] | ΔH° [2, 4] |
| --- | --- | --- | --- | --- | --- | --- | --- | --- | --- | --- | --- | --- | --- | --- | --- | --- | --- |
| wild-type: Wild-type core streptavidin (SEQ ID NO:1), comparator for biotin binding [reference compound] | 2.5e+13 M⁻¹ | ~2.5e+13 M⁻¹ | approximately 2.5×10^13 M^−1 | -24.9 ± 0.4 kcal/mol | -24.9 kcal/mol | -345 ± 12 cal/mol·°C | −345 cal/mol° C. | -6.6 ± 0.4 kcal/mol | -6.6 kcal/mol | -18 kcal/mol | – | – | – | – | – | – | – |
| B1 | – | – | – | – | – | -95 ± 29 cal/mol·°C | −95 cal/mol° C. | – | – | – | -3.3 ± 0.7 kcal/mol | -10.1 kcal/mol | -13.4 ± 0.7 kcal/mol | (2.47 ± 1.87) × 10^7 M^−1 | −3.8 (±0.8) kcal/mol and −3.8 ± 0.8 kcal/mol | -10.0 kcal/mol | −13.8 (±0.8) kcal/mol and −13.8 ± 0.8 kcal/mol |

Reference: patent publication US6492492B1, “Circularly permuted biotin binding proteins” (University of Washington, priority 1998, dated 2002)
